BindingDB's records for patent WO2022076495 (MERCK SHARP & DOHME CORP., 2022)
Several values for one entry are separate records, joined by “and”; a condition that tells them apart may be missing. Equal entries are not always repeated.

Target: T1, Diacylglycerol O-acyltransferase 2 (Homo sapiens, UniProt Q96PD7)
T1 sequence (Q96PD7 whole entry): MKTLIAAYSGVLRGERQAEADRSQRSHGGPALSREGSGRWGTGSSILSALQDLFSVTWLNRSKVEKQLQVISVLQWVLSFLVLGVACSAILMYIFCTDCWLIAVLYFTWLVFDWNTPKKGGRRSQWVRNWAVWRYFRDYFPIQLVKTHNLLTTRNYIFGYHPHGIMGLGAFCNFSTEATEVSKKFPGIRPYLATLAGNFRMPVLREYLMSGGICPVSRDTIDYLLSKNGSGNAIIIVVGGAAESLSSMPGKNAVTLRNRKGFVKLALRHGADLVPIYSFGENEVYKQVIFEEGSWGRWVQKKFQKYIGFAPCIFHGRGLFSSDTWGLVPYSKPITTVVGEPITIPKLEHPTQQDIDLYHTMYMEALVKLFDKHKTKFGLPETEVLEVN
Experiment: DGAT2 enzymatic activity assay
Procedure: DGAT2 activity was determined by measuring the amount of enzymatic product 13Ci8-triolein (13C-l,2,3-Tri(cis-9-octadecenoyl)glycerol) using the membrane prep mentioned above. The assay was carried out in ABgene 384-well assay plates in a final volume of 25 pL at rt. The assay mixture contained the following: assay buffer (100 mM Tris Cl, pH 7.0, 20 mM MgCl2, 5% ethanol), 25 pM of di olein, 5 μM of 13C oleoyl-CoA and 8 ng/pL of DGAT2 membrane.

Question: `C[C@@H](n1c(=O)n(-c2cc(OCC(F)F)ncc2F)c2cc(F)c(C(=O)NC3(C)CCS(=O)(=O)CC3)cc21)C(C)(C)O` [WO2022076495, EXAMPLE 74b] was tested. Which IC50 did it give?
Answer: Its IC50 is 6.5 nM.

Question: With `C[C@@H](n1c(=O)n(-c2cc(OC(F)(F)F)ccc2F)c2ccc(C(=O)NC3(C)CCS(=O)(=O)CC3)cc21)C(C)(C)O` [WO2022076495, EXAMPLE 71b] as the compound, how does the IC50 read?
Answer: Its IC50 is 5.4 nM.

Question: `CC(C)n1c(=O)n(-c2cccc(OC(F)F)c2)c2cc(F)c(C(=O)N[C@H]3CCC[C@@H]3O)cc21` [WO2022076495, EXAMPLE 28] was tested. Which IC50 did it give?
Answer: Its IC50 is 779 nM.

Question: For `C[C@@H](n1c(=O)n(-c2cccc(OC(F)F)c2)c2ccc(C(=O)NC3(C)CCS(=O)(=O)CC3)cc21)C(C)(C)O` [WO2022076495, EXAMPLE 67b], which IC50 is on record?
Answer: The IC50 was 211 nM.

Question: How did the IC50 turn out when `CC[C@H](C)n1c(=O)n(-c2cccc(OC(F)F)c2)c2ccc(C(=O)NC3(C)CS(=O)(=O)C3)cc21` [WO2022076495, EXAMPLE 46b] was run?
Answer: The IC50 was 92 nM.

Question: `C[C@@H](n1c(=O)n(-c2cccc(OCC(F)F)c2)c2ccc(C(=O)NC3(C)CCS(=O)(=O)CC3)cc21)C(C)(C)O` [WO2022076495, EXAMPLE 68b] was tested. Which IC50 did it give?
Answer: The IC50 was 1.8 nM.

Question: `CC(C)n1c(=O)n(-c2cccc(OC(F)F)c2)c2cc(F)c(C(=O)N[C@H]3CCOC[C@@H]3O)cc21` [WO2022076495, EXAMPLE 29] was tested. Which IC50 did it give?
Answer: The IC50 was 1260 nM.

Question: `C[C@H](n1c(=O)n(-c2cc(OC(F)F)ccc2F)c2ccc(C(=O)NC3(C)CCS(=O)(=O)CC3)cc21)C(C)(C)O` [WO2022076495, EXAMPLE 66a] was tested. Which IC50 did it give?
Answer: The IC50 was 1.1 nM.

Question: How did the IC50 turn out when `C[C@@H](n1c(=O)n(-c2cccc(OC(F)(F)C(F)F)c2)c2cc(F)c(C(=O)NC3(C)CCS(=O)(=O)CC3)cc21)C(C)(C)O` [WO2022076495, EXAMPLE 77b] was run?
Answer: The IC50 was 9.8 nM.

Question: `C[C@@H](C(F)F)n1c(=O)n(-c2cccc(OC(F)F)c2)c2ccc(C(=O)NC3(C)CCS(=O)(=O)CC3)cc21` [WO2022076495, EXAMPLE 45b] was tested. Which IC50 did it give?
Answer: Its IC50 is 101 nM.

Question: With `CC(C)n1c(=O)n(-c2cccc(OC(F)F)c2)c2cc(F)c(C(=O)N[C@@H]3CCCC[C@H]3O)cc21` [WO2022076495, EXAMPLE 31] as the compound, how does the IC50 read?
Answer: Its IC50 is 106 nM.

Question: Which IC50 does the source give for `CC(C)(O)Cn1c(=O)n(-c2cccc(OC(F)F)c2)c2ccc(C(=O)NC3(C)CS(=O)(=O)C3)cc21` [WO2022076495, EXAMPLE 64] here?
Answer: The IC50 was 37 nM.

Question: With `CC(C)n1c(=O)n(-c2cc(OCC(F)F)ncc2F)c2ccc(C(=O)NC3(C)CCS(=O)(=O)CC3)cc21` [WO2022076495, EXAMPLE 15] as the compound, how does the IC50 read?
Answer: Its IC50 is 6.7 nM.

Question: For `CC[C@@H](C)n1c(=O)n(-c2cccc(OC(F)F)c2)c2ccc(C(=O)NC3(C)CS(=O)(=O)C3)cc21` [WO2022076495, EXAMPLE 46a], which IC50 is on record?
Answer: Its IC50 is 81 nM.

Question: How did the IC50 turn out when `CC(C)n1c(=O)n(-c2cccc(OC(F)F)c2)c2cc(F)c(C(=O)NC(C)C(C)(C)O)cc21` (configuration not stated) [WO2022076495, EXAMPLE 27] was run?
Answer: The IC50 was greater than 10000 nM.

Question: Which IC50 does the source give for `CC(C)n1c(=O)n(-c2cccc(OC(F)F)c2)c2cc(F)c(C(=O)N[C@H]3CCCC[C@@H]3O)cc21` [WO2022076495, EXAMPLE 35] here?
Answer: The IC50 was 71 nM.

Question: With `C[C@@H](n1c(=O)n(-c2cc(OC(F)F)ccc2F)c2ccc(C(=O)NC3(C)CCS(=O)(=O)CC3)cc21)C(C)(C)O` [WO2022076495, EXAMPLE 66b] as the compound, how does the IC50 read?
Answer: Its IC50 is 17 nM.

Question: How did the IC50 turn out when `C[C@H](n1c(=O)n(-c2cccc(OC(F)(F)C(F)F)c2)c2cc(F)c(C(=O)NC3(C)CCS(=O)(=O)CC3)cc21)C(C)(C)O` [WO2022076495, EXAMPLE 77a] was run?
Answer: Its IC50 is 5.6 nM.

Question: For `C[C@H](C(F)F)n1c(=O)n(-c2cccc(OC(F)F)c2)c2ccc(C(=O)NC3(C)CCS(=O)(=O)CC3)cc21` [WO2022076495, EXAMPLE 45a], which IC50 is on record?
Answer: The IC50 was 12 nM.

Question: Which IC50 does the source give for `CC1(NC(=O)c2ccc3c(c2)n(S(=O)(=O)c2ccccc2)c(=O)n3-c2cccc(OC(F)F)c2)CCS(=O)(=O)CC1` [WO2022076495, EXAMPLE 86] here?
Answer: Its IC50 is greater than 9990 nM.

Question: `CC(C)n1c(=O)n(-c2cccc(OC(F)(F)C(F)(F)F)c2)c2ccc(C(=O)NC3(C)CS(=O)(=O)C3)cc21` [WO2022076495, EXAMPLE 7] was tested. Which IC50 did it give?
Answer: The IC50 was 16 nM.

Question: How did the IC50 turn out when `CC(C)n1c(=O)n(-c2cccc(OC(F)F)c2)c2cc(F)c(C(=O)NC3(C)CS(=O)(=O)C3)cc21` [WO2022076495, EXAMPLE 24] was run?
Answer: Its IC50 is 66 nM and 54 nM.
